Results published in ChEMBL document CHEMBL3351835, “Anti-inflammatory diterpenoids from the root bark of Acanthopanax gracilistylus” (J Nat Prod, 2014).

Columns and labels:
Assay type in all cases: functional, cell-based
PBMC [1] = assay: Antiinflammatory activity in human PBMC assessed as inhibition of LPS-induced IL-1beta expression pretreated 1 hr before LPS challenge followed by incubated for 16 hrs by flow cytometry
PBMC [2] = assay: Antiinflammatory activity in human PBMC assessed as inhibition of LPS-induced IL-8 expression pretreated 1 hr before LPS challenge followed by incubated for 16 hrs by flow cytometry
PBMC [3] = assay: Antiinflammatory activity in human PBMC assessed as inhibition of LPS-induced TNFalpha expression pretreated 1 hr before LPS challenge followed by incubated for 16 hrs by flow cytometry

C=C[C@]1(C)C=C2C(=O)C[C@H]3[C@@](C)(CCC[C@@]3(C)C(=O)O)[C@@H]2CC1
IC50 (PBMC [1]): 30 nM | IC50 (PBMC [2]): > 10000 nM | IC50 (PBMC [3]): 7 nM

C[C@]12CCC3=C(CC[C@@H]4[C@](C)(C(=O)O)CCC[C@@]34C)[C@H]1OC[C@@H]2O
IC50 (PBMC [1]): > 10000 nM | IC50 (PBMC [2]): 1 nM | IC50 (PBMC [3]): > 10000 nM

Cc1cc(O)c2c(c1O)C(=O)C[C@@H]1[C@](C)(C(=O)O)CCC[C@@]21C
IC50 (PBMC [1]): > 10000 nM | IC50 (PBMC [2]): > 10000 nM | IC50 (PBMC [3]): 8 nM

C[C@@]12CCC[C@@](C)(C(=O)O)[C@H]1CC[C@]13C=C(CO)[C@H](CC[C@H]12)C3
IC50 (PBMC [1]): 800 nM | IC50 (PBMC [2]): > 10000 nM | IC50 (PBMC [3]): 10 nM

C[C@@]12CCC[C@@](C)(C(=O)O)[C@H]1CC[C@@]13C[C@@H](CC[C@@H]21)[C@]1(CO)O[C@H]31
IC50 (PBMC [1]): 100 nM | IC50 (PBMC [2]): > 10000 nM | IC50 (PBMC [3]): 60 nM

C[C@@]12CCC[C@@](C)(C(=O)O)[C@H]1CC[C@]13C=C(C(=O)O)[C@H](CC[C@H]12)C3
IC50 (PBMC [1]): 7500 nM | IC50 (PBMC [2]): 3 nM | IC50 (PBMC [3]): 2100 nM

C[C@@]12CCC[C@@](C)(C(=O)O)[C@H]1CC(=O)[C@]13CC(=O)[C@H](CC[C@H]12)C3
IC50 (PBMC [1]): 1 nM | IC50 (PBMC [2]): > 10000 nM | IC50 (PBMC [3]): 2 nM

C[C@@]12CCC[C@@](C)(C(=O)O)[C@H]1CC(=O)[C@@]13C[C@@H](CC[C@H]12)[C@H](O)C3
IC50 (PBMC [1]): 4 nM | IC50 (PBMC [2]): > 10000 nM | IC50 (PBMC [3]): 20 nM

C[C@@]12CCC[C@@](C)(C(=O)O)[C@H]1CC(=O)[C@]13C[C@@H](CO)[C@H](CC[C@H]12)C3
IC50 (PBMC [1]): 100 nM | IC50 (PBMC [2]): > 10000 nM | IC50 (PBMC [3]): 100 nM

COC(=O)[C@]1(C)CCC[C@@]2(C)[C@@H]3CC[C@@H]4C[C@]3(C=C4C=O)CC[C@@H]21
IC50 (PBMC [1]): 5 nM | IC50 (PBMC [2]): 6 nM | IC50 (PBMC [3]): 400 nM

C[C@@H]1C[C@H]2[C@@H]3CCC4=CC(=O)C=C[C@]4(C)[C@@]3(F)[C@@H](O)C[C@]2(C)[C@@]1(O)C(=O)CO [DEXAMETHASONE]
IC50 (PBMC [1]): 8 nM | IC50 (PBMC [2]): 9 nM | IC50 (PBMC [3]): 2 nM

C=C1C[C@@]23CC[C@H]4[C@@](C)(CCC[C@@]4(C)C(=O)O)[C@@H]2CC[C@@H]1C3 [KAURENOIC ACID]
IC50 (PBMC [1]): 10 nM | IC50 (PBMC [2]): 7700 nM | IC50 (PBMC [3]): 2 nM
